Source: patent US9187472B2 (AbbVie Inc., priority 2012, dated 2015)

Tests used:
[1] = target: NAMPT (human, recombinant, C-terminally His-tagged) (Homo sapiens, UniProt P43490); assay: Time-Resolved Fluorescence Resonance Energy Transfer (TR-FRET) Binding Assay of NAMPT; conditions: without substrates; 6.8 nM NAMPT, 200 nM probe, 3 hours equilibration
In short: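 Competitive binding against an Oregon Green 488 tracer (200 nM), 6.8 nM His-tagged enzyme, 1 nM Tb antibody, 2% DMSO, 3 h at RT. IC50 derived from TR-FRET ratios.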

NAMPT = NAMPT (Homo sapiens, UniProt P43490); assay: TR-FRET Binding Assay of NAMPT with PRPP; conditions: with 200 μM PRPP and 2.5 mM ATP; 2 nM NAMPT, 2 nM probe, 16 hours equilibration
Sequence of NAMPT (P43490 whole entry): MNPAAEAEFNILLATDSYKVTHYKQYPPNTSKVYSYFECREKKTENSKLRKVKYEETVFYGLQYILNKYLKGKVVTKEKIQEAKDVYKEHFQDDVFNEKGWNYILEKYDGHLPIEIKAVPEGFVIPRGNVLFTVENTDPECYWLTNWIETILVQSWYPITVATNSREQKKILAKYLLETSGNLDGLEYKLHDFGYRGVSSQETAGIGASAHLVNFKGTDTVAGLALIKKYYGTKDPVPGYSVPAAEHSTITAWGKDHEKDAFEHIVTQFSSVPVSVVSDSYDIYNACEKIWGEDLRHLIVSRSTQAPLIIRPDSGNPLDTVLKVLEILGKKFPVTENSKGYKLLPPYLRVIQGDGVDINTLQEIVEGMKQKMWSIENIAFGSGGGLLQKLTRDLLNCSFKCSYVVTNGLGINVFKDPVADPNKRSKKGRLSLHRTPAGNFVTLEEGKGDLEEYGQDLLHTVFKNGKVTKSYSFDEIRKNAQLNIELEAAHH
In short: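 Read-out is TR-FRET after a 16 h equilibration allowing possible compound modification by the enzyme. Final mix: 2 nM NAMPT, 2 nM probe, 1 nM Tb-anti-His antibody, 200 μM PRPP, 2.5 mM ATP, 2% DMSO.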

PC3 cells = assay: NAMPT Cell Proliferation Assay; assay type: cell-based; conditions: Homo sapiens, PC-3, 120 h, 5 days incubation, cell viability by Cell Titer Glo
In short: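 Following overnight attachment in RPMI with 10% heat-inactivated FBS, PC3 cells at 500 per well receive compounds spanning 10 μM down to 1×10^−5 μM. Growth is assessed by luminescent viability read after 5 days.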

Sequence of NAMPT (human, recombinant, C-terminally His-tagged) (P43490 whole entry): as above

IC50 [1] [nM]	IC50 (NAMPT) [nM]	IC50 (PC3 cells) [nM]	Structure (SMILES)
134	0.466	24.7	CCCC(=O)N1CCC(c2ccc(C(=O)NCc3ccn4ccnc4c3)s2)C1 (stereo not drawn) [Example 782, 5-(1-butanoylpyrrolidin-3-yl)-N-(imidazo[1,2-a]pyridin-7-ylmethyl)thiophene-2-carboxamide]
64.4	0.907	9.8	O=C(NCc1ccn2ccnc2c1)c1ccc(C2CCN(C(=O)c3ccco3)C2)s1 (stereo not drawn) [Example 783, 5-[1-(furan-2-ylcarbonyl)pyrrolidin-3-yl]-N-(imidazo[1,2-a]pyridin-7-ylmethyl)thiophene-2-carboxamide]
22.6	0.455	2.38	COc1ccc(C(=O)N2CCC(c3ccc(C(=O)NCc4ccn5ccnc5c4)s3)C2)cc1 (stereo not drawn) [Example 784, N-(imidazo[1,2-a]pyridin-7-ylmethyl)-5-[1-(4-methoxybenzoyl)pyrrolidin-3-yl]thiophene-2-carboxamide]
23.6	0.638	0.839	O=C(NCc1ccn2ccnc2c1)c1ccc(C2CCN(C(=O)c3cc(F)ccc3F)C2)s1 (stereo not drawn) [Example 785, 5-[1-(2,5-difluorobenzoyl)pyrrolidin-3-yl]-N-(imidazo[1,2-a]pyridin-7-ylmethyl)thiophene-2-carboxamide]
44.4	0.484	7.51	O=C(NCc1ccn2ccnc2c1)c1ccc(C2CCN(C(=O)c3cccs3)C2)s1 (stereo not drawn) [Example 786, N-(imidazo[1,2-a]pyridin-7-ylmethyl)-5-[1-(thiophen-2-ylcarbonyl)pyrrolidin-3-yl]thiophene-2-carboxamide]
23.1	0.398	1.02	Cc1ccsc1C(=O)N1CCC(c2ccc(C(=O)NCc3ccn4ccnc4c3)s2)C1 (stereo not drawn) [Example 793, N-(imidazo[1,2-a]pyridin-7-ylmethyl)-5-{1-[(3-methylthiophen-2-yl)carbonyl]pyrrolidin-3-yl}thiophene-2-carboxamide]
29	0.465	0.883	Cc1ccccc1C(=O)N1CCC(c2ccc(C(=O)NCc3ccn4ccnc4c3)s2)C1 (stereo not drawn) [Example 794, N-(imidazo[1,2-a]pyridin-7-ylmethyl)-5-[1-(2-methylbenzoyl)pyrrolidin-3-yl]thiophene-2-carboxamide]
97.2	0.671	6.98	Cc1noc(C)c1C(=O)N1CCC(c2ccc(C(=O)NCc3ccn4ccnc4c3)s2)C1 (stereo not drawn) [Example 797, 5-{1-[(3,5-dimethyl-1,2-oxazol-4-yl)carbonyl]pyrrolidin-3-yl}-N-(imidazo[1,2-a]pyridin-7-ylmethyl)thiophene-2-carboxamide]
95.7	0.47	9.63	O=C(NCc1ccn2ccnc2c1)c1ccc(C2CCN(C(=O)c3cccnc3)C2)s1 (stereo not drawn) [Example 798, N-(imidazo[1,2-a]pyridin-7-ylmethyl)-5-[1-(pyridin-3-ylcarbonyl)pyrrolidin-3-yl]thiophene-2-carboxamide]
102	0.406	6.96	Cn1nccc1C(=O)N1CCC(c2ccc(C(=O)NCc3ccn4ccnc4c3)s2)C1 (stereo not drawn) [Example 799, N-(imidazo[1,2-a]pyridin-7-ylmethyl)-5-{1-[(1-methyl-1H-pyrazol-5-yl)carbonyl]pyrrolidin-3-yl}thiophene-2-carboxamide]

The remaining lines, values behind:

Structure (SMILES)	IC50 [1] [nM]	IC50 (NAMPT) [nM]	IC50 (PC3 cells) [nM]
N#CC1(C(=O)N2CCC(c3ccc(C(=O)NCc4ccn5ccnc5c4)s3)C2)CC1 (stereo not drawn) [Example 781, 5-{1-[(1-cyanocyclopropyl)carbonyl]pyrrolidin-3-yl}-N-(imidazo[1,2-a]pyridin-7-ylmethyl)thiophene-2-carboxamide]	87.5	0.839	7.27
CC(C)(C)C(=O)N1CCC(c2ccc(C(=O)NCc3ccn4ccnc4c3)s2)C1 (stereo not drawn) [Example 787, 5-[1-(2,2-dimethylpropanoyl)pyrrolidin-3-yl]-N-(imidazo[1,2-a]pyridin-7-ylmethyl)thiophene-2-carboxamide]	55	0.474	6.75
CC(C)(C)CC(=O)N1CCC(c2ccc(C(=O)NCc3ccn4ccnc4c3)s2)C1 (stereo not drawn) [Example 788, 5-[1-(3,3-dimethylbutanoyl)pyrrolidin-3-yl]-N-(imidazo[1,2-a]pyridin-7-ylmethyl)thiophene-2-carboxamide]	82	0.674	5.44
CC1(Cn2cc(-c3ccc(C(=O)NCc4ccn5ccnc5c4)s3)cn2)CCNCC1 [Example 789, N-(imidazo[1,2-a]pyridin-7-ylmethyl)-5-{1-[(4-methylpiperidin-4-yl)methyl]-1H-pyrazol-4-yl}thiophene-2-carboxamide]	21.7	0.434	69.4
O=C(NCc1ccn2ccnc2c1)c1ccc(-c2cnn(CC3(F)CCOCC3)c2)o1 [Example 790, 5-{1-[(4-fluorotetrahydro-2H-pyran-4-yl)methyl]-1H-pyrazol-4-yl}-N-(imidazo[1,2-a]pyridin-7-ylmethyl)furan-2-carboxamide]	79.5	0.586	2.6
CCC(C)(C)C(=O)N1CCC(c2ccc(C(=O)NCc3ccn4ccnc4c3)s2)C1 (stereo not drawn) [Example 791, 5-[1-(2,2-dimethylbutanoyl)pyrrolidin-3-yl]-N-(imidazo[1,2-a]pyridin-7-ylmethyl)thiophene-2-carboxamide]	47.1	1.15	0.898
O=C(NCc1ccn2ccnc2c1)c1ccc(C2CCN(C(=O)c3cnccn3)C2)s1 (stereo not drawn) [Example 792, N-(imidazo[1,2-a]pyridin-7-ylmethyl)-5-[1-(pyrazin-2-ylcarbonyl)pyrrolidin-3-yl]thiophene-2-carboxamide]	116	0.5	9.57
CC1(C(=O)N2CCC(c3ccc(C(=O)NCc4ccn5ccnc5c4)s3)C2)CC1 (stereo not drawn) [Example 795, N-(imidazo[1,2-a]pyridin-7-ylmethyl)-5-{1-[(1-methylcyclopropyl)carbonyl]pyrrolidin-3-yl}thiophene-2-carboxamide]	89.6	0.764	6.2
O=C(NCc1ccn2ccnc2c1)c1ccc(C2CCN(C(=O)CCC(F)(F)F)C2)s1 (stereo not drawn) [Example 796, N-(imidazo[1,2-a]pyridin-7-ylmethyl)-5-[1-(4,4,4-trifluorobutanoyl)pyrrolidin-3-yl]thiophene-2-carboxamide]	91.7	0.49	4.65
CC(C)C(C)C(=O)N1CCC(c2ccc(C(=O)NCc3ccn4ccnc4c3)s2)C1 (stereo not drawn) [Example 800, 5-[1-(2,3-dimethylbutanoyl)pyrrolidin-3-yl]-N-(imidazo[1,2-a]pyridin-7-ylmethyl)thiophene-2-carboxamide]	82.1	0.925	6.21
O=C(NCc1ccn2ccnc2c1)c1ccc(C2=CCN(S(=O)(=O)c3ccccc3)CC2)o1 [Example 801, N-(imidazo[1,2-a]pyridin-7-ylmethyl)-5-[1-(phenylsulfonyl)-1,2,3,6-tetrahydropyridin-4-yl]furan-2-carboxamide]	866	1	57.3
O=C(NCc1ccn2ccnc2c1)c1cnc(C2CCN(C(=O)c3ccccc3F)CC2)s1 [Example 802, 2-[1-(2-fluorobenzoyl)piperidin-4-yl]-N-(imidazo[1,2-a]pyridin-7-ylmethyl)-1,3-thiazole-5-carboxamide]	35.9	0.533	5.83
O=C(NCc1ccn2ccnc2c1)c1ccc(C2=CCN(C(=O)c3ccccc3F)CC2)o1 [Example 803, 5-[1-(2-fluorobenzoyl)-1,2,3,6-tetrahydropyridin-4-yl]-N-(imidazo[1,2-a]pyridin-7-ylmethyl)furan-2-carboxamide]	314	1.01	17.6
O=C(NCc1ccn2ccnc2c1)c1cnc(C2CCN(C(=O)c3ccccc3F)C2)s1 (stereo not drawn) [Example 804, 2-[1-(2-fluorobenzoyl)pyrrolidin-3-yl]-N-(imidazo[1,2-a]pyridin-7-ylmethyl)-1,3-thiazole-5-carboxamide]	289	0.445	49.7
CC(C)C(=O)N1CCC(c2ncc(C(=O)NCc3ccn4ccnc4c3)s2)C1 (stereo not drawn) [Example 805, N-(imidazo[1,2-a]pyridin-7-ylmethyl)-2-[1-(2-methylpropanoyl)pyrrolidin-3-yl]-1,3-thiazole-5-carboxamide]	3920	1.12	7820
CC(C)CC(=O)N1CCC(c2ncc(C(=O)NCc3ccn4ccnc4c3)s2)C1 (stereo not drawn) [Example 806, N-(imidazo[1,2-a]pyridin-7-ylmethyl)-2-[1-(3-methylbutanoyl)pyrrolidin-3-yl]-1,3-thiazole-5-carboxamide]	2740	0.543	1400
O=C(NCc1ccn2ccnc2c1)c1cnc(C2CCN(C(=O)c3ccccc3)C2)s1 (stereo not drawn) [Example 807, 2-(1-benzoylpyrrolidin-3-yl)-N-(imidazo[1,2-a]pyridin-7-ylmethyl)-1,3-thiazole-5-carboxamide]	628	0.509	100
